In patent US20100041892A1, “Therapeutic agent for diabetes” (priority 2005, published 2010) one finds response vs control in vivo, melting point and EC50 data, which are given here for seven molecules.

Structures are written as SMILES. Read-outs that look alike come from different tables or passages of the source.

One series relates to KKAy mice. Nature of the series: Blood glucose and blood lipid (triglyceride) lowering action in mice. The series is classed as in vivo. Conditions: Mus musculus, 4TO7, po, 0.01% in powder diet, 4 to 7 days. A digest of the protocol: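 KKAy mice (9 to 14-week-old, 5 per group) fed compound in powder diet at 0.01% (some at 0.03% or 0.005%) ad libitum for 4 to 7 days. Orbital plexus blood drawn; plasma glucose and triglyceride quantitated by enzyme method.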

The target in a further series is T1, PPARγ-RXRα heterodimer (Homo sapiens, UniProt P37231).
T1 construct: expressed in transfected cells; host or cells: CHO-K1 (PPARγ:RXRα:4ERPP/CHO-K1)
T1 sequence (P37231 1-477 isoform P37231-2): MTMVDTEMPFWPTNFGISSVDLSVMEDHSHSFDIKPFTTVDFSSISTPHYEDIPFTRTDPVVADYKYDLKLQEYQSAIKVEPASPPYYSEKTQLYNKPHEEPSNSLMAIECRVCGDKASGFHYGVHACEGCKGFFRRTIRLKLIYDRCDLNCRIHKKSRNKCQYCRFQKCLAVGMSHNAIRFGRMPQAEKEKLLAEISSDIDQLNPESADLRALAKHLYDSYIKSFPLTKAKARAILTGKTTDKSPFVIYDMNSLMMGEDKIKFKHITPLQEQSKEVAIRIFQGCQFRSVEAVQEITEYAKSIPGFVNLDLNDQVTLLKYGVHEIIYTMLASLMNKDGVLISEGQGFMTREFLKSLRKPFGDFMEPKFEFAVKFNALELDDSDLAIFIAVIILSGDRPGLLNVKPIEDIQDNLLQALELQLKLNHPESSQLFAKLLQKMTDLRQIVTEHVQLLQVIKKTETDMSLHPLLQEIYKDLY
T1 sequence (P19793 1-462 partner): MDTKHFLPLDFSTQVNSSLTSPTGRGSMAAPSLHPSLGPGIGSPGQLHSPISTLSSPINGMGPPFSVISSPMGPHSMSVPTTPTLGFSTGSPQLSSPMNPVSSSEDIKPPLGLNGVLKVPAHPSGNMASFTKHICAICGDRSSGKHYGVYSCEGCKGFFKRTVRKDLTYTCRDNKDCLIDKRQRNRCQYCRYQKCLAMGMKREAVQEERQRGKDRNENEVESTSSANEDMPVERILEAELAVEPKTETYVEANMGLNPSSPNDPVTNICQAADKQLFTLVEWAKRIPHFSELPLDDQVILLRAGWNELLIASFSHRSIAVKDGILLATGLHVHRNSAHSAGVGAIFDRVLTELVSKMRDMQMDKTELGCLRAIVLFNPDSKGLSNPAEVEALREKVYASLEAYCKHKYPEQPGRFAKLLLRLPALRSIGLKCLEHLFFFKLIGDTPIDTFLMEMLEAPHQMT
Nature of the series: PPARγ-RXRα heterodimer ligand activity (luciferase reporter, PPARγ:RXRα:4ERPP/CHO-K1 cells). Format: cell-based. The following applies: concentration showing 50% of the maximum luciferase induction rate; CHO-K1 reporter cells, one day incubation. A digest of the protocol:
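CHO-K1 cells expressing PPARγ:RXRα with a 4ERPP reporter were exposed to compound for one day at 37° C in Ham F12 containing 0.1% fatty acid-free BSA, then read for luciferase. Induction rate was taken relative to untreated cells as 1, and EC50 is the concentration giving 50% of maximal induction.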
On the technique in general: In a reporter assay the amount or activity of a reporter protein is the signal.

Where [1] appears, read: plasma glucose relative to non-administration group = 100%, read-out: hypoglycemic action (%).
Where [2] appears, read: plasma triglyceride relative to non-administration group = 100%, read-out: hypolipidemic action (%).

Molecule `CC(C)CCS(=O)(=O)NC(=O)/C=C/c1cc(OCC2CC2)nn1Cc1ccc(C(F)(F)F)cc1Cl` [Example 26, (2E)-3-[1-[2-chloro-4-(trifluoromethyl)benzyl]-3-(cyclopropylmethoxy)-1H-pyrazol-5-yl]-N-[(3-methylbutyl)sulfonyl]acrylamide] gave a melting point of 155.5 to 157.5 °C. Moreover, the response vs control in vivo at 0.01 % with KKAy mice (setting [1]) came out at 50%. The response vs control in vivo at 0.01 % in the series on KKAy mice (setting [2]) was 62%. On PPARγ-RXRα heterodimer, the midpoint of the response, the EC50, lay at 4.6 nM.
In turn, `COCCOc1ccc(CCCOC(=O)NS(=O)(=O)NCCc2ccccn2)c(Oc2ncc(C(F)(F)F)cc2Cl)c1` [Example 208, 3-[2-{[3-chloro-5-(trifluoromethyl)pyridin-2-yl]oxy}-4-(2-methoxyethoxy)phenyl]propyl {[(2-pyridin-2-ylethyl)amino]sulfonyl}carbamate] yielded a melting point of 91 to 93 °C. In addition, the response vs control in vivo at 0.01 % in the series on KKAy mice (setting [1]) came to 70%. Besides, in the series with KKAy mice (setting [2]), the response vs control in vivo at 0.01 % came to 71%. Moreover, on PPARγ-RXRα heterodimer, the EC50 came to 4 nM.
The molecule `COCCOc1ccc(/C=C/COC(=O)NS(=O)(=O)N2CCCC2)c(Oc2ncc(C(F)(F)F)cc2Cl)c1` [Example 437, (2E)-3-[2-{[3-chloro-5-(trifluoromethyl)pyridin-2-yl]oxy}-4-(2-methoxyethoxy)phenyl]prop-2-en-1-yl (pyrrolidin-1-ylsulfonyl)carbamate] yielded a melting point of 123 to 124 °C. The response vs control in vivo at 0.01 % in the series on KKAy mice (setting [1]) came to 45%. Also, the response vs control in vivo at 0.01 % with KKAy mice (setting [2]) is 58%. The same molecule registered an EC50 at PPARγ-RXRα heterodimer of 54 nM.
`CCOCC(COCC)Oc1ccc(CCCOC(=O)NS(=O)(=O)NCCOC(C)C)c(Oc2ncc(C(F)(F)F)cc2Cl)c1` [Example 430, 3-{2-{[3-chloro-5-(trifluoromethyl)pyridin-2-yl]oxy}-4-[2-ethoxy-1-(ethoxymethyl)ethoxy]phenyl}propyl {[(2-isopropoxyethyl)amino]sulfonyl}carbamate]: the melting point lay in the range of 68 to 69.2 °C. In addition, the response vs control in vivo at 0.01 % with KKAy mice (setting [1]) is 45%. Also, in the series on KKAy mice (setting [2]), the response vs control in vivo at 0.01 % amounted to 34%. At PPARγ-RXRα heterodimer, this molecule yielded a concentration for a half-maximal effect (EC50) of 0.95 nM.
Regarding `COCCOc1ccc(CCCOC(=O)NS(=O)(=O)NCCc2cccs2)c(Oc2ncc(C(F)(F)F)cc2Cl)c1` [Example 207, 3-[2-{[3-chloro-5-(trifluoromethyl)pyridin-2-yl]oxy}-4-(2-methoxyethoxy)phenyl]propyl ({[2-(2-thienyl)ethyl]amino}sulfonyl)carbamate], the melting point was in the range of 117.5 to 118 °C. In addition, in the series on KKAy mice (setting [1]), the response vs control in vivo at 0.01 % was determined as 54%. In the series on KKAy mice (setting [2]), the response vs control in vivo at 0.01 % is 43%. On PPARγ-RXRα heterodimer, this molecule had an EC50 of 0.99 nM.
`COCCOc1ccc(CCCOC(=O)NS(=O)(=O)NC2CCC(C)CC2)c(Oc2ncc(C(F)(F)F)cc2Cl)c1` (stereo not shown) [Example 205, 3-[2-{[3-chloro-5-(trifluoromethyl)pyridin-2-yl]oxy}-4-(2-methoxyethoxy)phenyl]propyl {[(4-methylcyclohexyl)amino]sulfonyl}carbamate] gave a melting point of 121.5 to 121.8 °C. Also, the response vs control in vivo at 0.01 % in the series on KKAy mice (setting [1]) stood at 54%. Also, the response vs control in vivo at 0.01 % in the series on KKAy mice (setting [2]) came out at 50%. The EC50 on PPARγ-RXRα heterodimer was found to be 3.1 nM.
Molecule `CCCCCS(=O)(=O)NC(=O)/C=C/c1ccc(OCCC2OCCO2)cc1Oc1ncc(C(F)(F)F)cc1Cl` [Example 196, (2E)-3-[2-{[3-chloro-5-(trifluoromethyl)pyridin-2-yl]oxy}-4-[2-(1,3-dioxolan-2-yl)ethoxy]phenyl)-N-(pentylsulfonyl)acrylamide] displayed a melting point of 116 to 118 °C. For the same molecule, the response vs control in vivo at 0.01 % in the series with KKAy mice (setting [1]) was 54%. In addition, in the series on KKAy mice (setting [2]), the response vs control in vivo at 0.01 % worked out at 79%. At PPARγ-RXRα heterodimer, this molecule displayed a half-maximal effective concentration (EC50) of 4.4 nM.

As a reminder, the melting point is the temperature of the solid-liquid transition. A word on the EC50: it is the concentration giving half of the maximal effect. Low readings indicate a more potent agent, high ones a less potent agent.
